Laboratory results: patent publication US20120010205A1, “NOVEL QUINOLINE ESTERS USEFUL FOR TREATING SKIN DISORDERS” (Wyeth LLC, priority 2010, published 2012)

Assays:
human LXRβ = target: T1, human LXRβ (Homo sapiens, UniProt P55055); experiment: Ligand-binding test procedure for human LXRβ (3H T0901317 tracer, flash plates); conditions: read-out: hLXRb binding IC50
T1 construct: made in house; host or cells: E. coli
T1 sequence (P55055 1-460): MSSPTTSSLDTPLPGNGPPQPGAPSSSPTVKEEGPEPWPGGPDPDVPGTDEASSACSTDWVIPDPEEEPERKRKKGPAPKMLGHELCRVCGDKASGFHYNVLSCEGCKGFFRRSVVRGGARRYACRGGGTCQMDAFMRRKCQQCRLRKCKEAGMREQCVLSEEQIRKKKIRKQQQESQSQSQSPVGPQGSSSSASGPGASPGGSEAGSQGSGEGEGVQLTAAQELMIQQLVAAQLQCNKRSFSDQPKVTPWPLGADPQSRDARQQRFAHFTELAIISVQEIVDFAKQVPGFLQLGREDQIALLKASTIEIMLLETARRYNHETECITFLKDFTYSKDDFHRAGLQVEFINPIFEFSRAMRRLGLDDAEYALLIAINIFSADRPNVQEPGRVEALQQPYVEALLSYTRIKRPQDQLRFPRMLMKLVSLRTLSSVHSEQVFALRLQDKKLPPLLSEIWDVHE
Description: LIGAND-BINDING TEST PROCEDURE FOR HUMAN LXRβ.
Buffer: 100 mM KCl, 100 mM TRIS (pH 7.4 at +4° C.), 8.6% glycerol, 0.1 mM PMSF*, 2 mM MTG*, 0.2% CHAPS (* not used in wash buffer)
Receptor source: E. coli extracted from cells expressing biotinylated hLXRβ. Extract was made in a similar buffer as above, but with 50 mM TRIS.
Washed streptavidin and coated flash plates with wash buffer. Diluted receptor extract to give Bmax˜4000 cpm and add to the wells. Wrapped the plates in aluminum foil and stored them at +4° C. overnight.
Made a dilution series in DMSO of the test ligands. Made a 5 nM solution of the radioactive tracer in buffer. Mixed 250 μL diluted tracer with 5 μL of the test ligand from each concentration of the dilution series. Washed the receptor-coated flash plates. Added 200 μL per well of the ligand/radiolabel mixture to the receptor-coated flash plates. Wrapped the plates in aluminum foil and incubate at +4° C. over night.
Aspirated wells, and washed the flashed plates. Sealed the plate. Measured the remaining radioactivity in the plate.

hLXRa = target: T2, hLXRa (Homo sapiens, UniProt Q13133); experiment: hLXRa binding
T2 sequence (Q13133 1-447): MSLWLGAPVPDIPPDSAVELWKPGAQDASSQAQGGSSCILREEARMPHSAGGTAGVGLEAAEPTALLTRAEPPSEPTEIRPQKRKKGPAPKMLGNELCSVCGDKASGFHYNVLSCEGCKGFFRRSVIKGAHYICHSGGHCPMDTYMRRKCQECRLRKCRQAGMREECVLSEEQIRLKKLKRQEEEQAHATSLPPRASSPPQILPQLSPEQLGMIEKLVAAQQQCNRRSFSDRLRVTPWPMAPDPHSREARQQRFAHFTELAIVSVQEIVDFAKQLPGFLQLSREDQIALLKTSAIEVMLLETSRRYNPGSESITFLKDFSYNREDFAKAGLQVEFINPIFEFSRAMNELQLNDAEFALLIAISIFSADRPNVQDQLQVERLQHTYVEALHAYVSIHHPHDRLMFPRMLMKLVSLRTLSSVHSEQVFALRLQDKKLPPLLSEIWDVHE

ABCG1 [1] = experiment: Gene regulation by LXR: ABCG1, human foreskin fibroblasts (serum-free); type: cell-based; conditions: Fibroblast
ABCG1 [2] = experiment: Gene regulation by LXR: ABCG1, KERTr (serum-free); type: cell-based

| IC50 (human LXRβ) | IC50 (hLXRa) | EC50 (ABCG1 [2]) | Compound | EC50 (ABCG1 [1]) |
| --- | --- | --- | --- | --- |
| 3.7 nM | 16.2 nM | 0.76 nM | CCS(=O)(=O)c1cccc(C(=O)Oc2cccc(-c3c(C(C)C)cnc4c(Cl)cccc34)c2)c1 [Example 1, 3-(8-chloro-3-isopromilquinolin-4-yl)phenyl 3-(ethylsulfonyl)benzoate] | 59 nM |
| 3.7 nM | 11.7 nM | 1.46 nM | Cc1ccc(S(C)(=O)=O)cc1C(=O)Oc1cccc(-c2c(C(C)C)cnc3c(Cl)cccc23)c1 [Example 2, 3-(8-chloro-3-isopropyiquinolin-4-yl)phenyl 2-methyl-5-(methylsulfonyl)benzoate] | 33 nM |
| 17 nM | 57 nM | 1.18 nM | CC(C)c1cnc2c(Cl)cccc2c1-c1cccc(OC(=O)c2ccc(S(C)(=O)=O)cc2)c1 [Example 3, 3-(8-chloro-3-isopropylquinolin-4-yl)phenyl 4-(methylsulfonyl)benzoate] | 45 nM |
| > 1000 nM | > 1000 nM | – | CC(C)c1cnc2c(Cl)cccc2c1-c1cccc(OC(=O)c2ccccc2S(C)(=O)=O)c1 [Example 4, 3-(8-chloro-3-isopropylquinolin-4-yl)phenyl 2-(methylsulfonyl)benzoate] | – |
| 25 nM | 53 nM | 1.62 nM | Cc1ccc(S(=O)(=O)N(C)C)cc1C(=O)Oc1cccc(-c2c(C(C)C)cnc3c(Cl)cccc23)c1 [Example 5] | 50 nM |
| 4 nM | 16.3 nM | 1.48 nM | CCS(=O)(=O)c1cccc(C(=O)Oc2cccc(-c3c(C(C)C)cnc4c(C(F)(F)F)cccc34)c2)c1 [Example 6, 3-[3-isopropyl-8-(trifluoromethyl)quinolin-4-yl]phenyl-3-(ethylsulfonyl)benzoate] | 37 nM |
| 3 nM | 9.2 nM | 3.34 nM | Cc1ccc(S(C)(=O)=O)cc1C(=O)Oc1cccc(-c2c(C(C)C)cnc3c(C(F)(F)F)cccc23)c1 [Example 7, 3-[3-isopropyl-8-(trifluoromethyl)quinolin-4-yl]phenyl-2-methyl-5-(methylsulfonyl)benzoate] | 23 nM |
| 12.5 nM | 54 nM | 1.9 nM | CC(C)c1cnc2c(C(F)(F)F)cccc2c1-c1cccc(OC(=O)c2ccc(S(C)(=O)=O)cc2)c1 [Example 8, 3-[3-isopropyl-8-(trifluoromethyl)quinolin-4-yl]phenyl 4-(methylsulfonyl)benzoate] | 38 nM |
| 112 nM | 256 nM | – | CC(C)c1cnc2c(C(F)(F)F)cccc2c1-c1cccc(OC(=O)c2ccccc2S(C)(=O)=O)c1 [Example 9, 3-[3-isopropyl-8-(trifluoromethyl)quinolin-4-yl]phenyl 2-(methylsulfonyl)benzoate] | – |
| 24 nM | 64 nM | 0.53 nM | Cc1ccc(S(=O)(=O)N(C)C)cc1C(=O)Oc1cccc(-c2c(C(C)C)cnc3c(C(F)(F)F)cccc23)c1 [Example 10] | 58 nM |
| 3.5 nM | 13.3 nM | 73 nM | Cc1cnc2c(C(F)(F)F)cccc2c1-c1cccc(OC(=O)c2cccc(S(C)(=O)=O)c2)c1 [Example 11] | 105 nM |
| 154 nM | 544 nM | – | Cc1cnc2c(C(F)(F)F)cccc2c1-c1cccc(C(=O)Oc2cccc(S(C)(=O)=O)c2)c1 [Example 12] | – |
| 3.4 nM | 9 nM | – | CC(C)c1cnc2c(Cl)cccc2c1-c1cccc(OC(=O)c2cc(S(C)(=O)=O)ccc2Cl)c1 [Example 13, 3-(8-chloro-3-isopropylquinolin-4-yl)phenyl 2-chloro-5-(methylsulfonyl)benzoate] | – |
| 4.1 nM | 17 nM | – | CC(C)c1cnc2c(C(F)(F)F)cccc2c1-c1cccc(OC(=O)c2cc(S(C)(=O)=O)ccc2Cl)c1 [Example 14, 3-[3-isopropyl-8-(trifluoromethyl)quinolin-4-yl]phenyl-2-chloro-5-(methylsulfonyl)benzoate] | – |
| 1.7 nM | 3.5 nM | 5.2 nM | CC(C)c1cnc2c(C(F)(F)F)cccc2c1-c1cccc(OC(=O)c2cccc(S(C)(=O)=O)c2)c1 [Example 15, 3-[3-isopropyl-8-(trifluoromethyl)quinolin-4-yl]phenyl 3-(methylsulfonyl)benzoate] | 41 nM |
| 2.2 nM | 4.4 nM | – | CC(C)c1cnc2c(Cl)cccc2c1-c1cccc(OC(=O)c2cccc(S(C)(=O)=O)c2)c1 [Example 16, 3-[8-chloro-3-(1-methylethyl)quinolin-4-yl]phenyl 3-(methylsulfonyl)benzoate] | – |
| 3.7 nM | 17 nM | – | Cc1cnc2c(Cl)cccc2c1-c1cccc(OC(=O)c2cccc(S(C)(=O)=O)c2)c1 [Example 17, 3-(8-chloro-3-methylquinolin-4-yl)phenyl 3-(methylsulfonyl) benzoate] | – |
| 13.8 nM | 122 nM | – | CS(=O)(=O)c1cccc(C(=O)Oc2ccc(Cl)c(-c3ccnc4c(C(F)(F)F)cccc34)c2)c1 [Example 18, 4-chloro-3-[8-(trifluoromethyl)quinolin-4-yl]phenyl-3-(methylsulfonyl)benzoate] | – |
| 2.2 nM | 4 nM | 12.5 nM | CCc1cnc2c(C(F)(F)F)cccc2c1-c1cccc(OC(=O)c2cccc(S(C)(=O)=O)c2)c1 [Example 19, 3-[3-ethyl-8-(trifluoromethyl)quinolin-4-yl]phenyl 3-(methylsulfonyl)benzoate] | 36 nM |
| 2 nM | 2.9 nM | 4.49 nM | CCCc1cnc2c(C(F)(F)F)cccc2c1-c1cccc(OC(=O)c2cccc(S(C)(=O)=O)c2)c1 [Example 20, 3-[3-propyl-8-(trifluoromethyl)quinolin-4-yl]phenyl 3-(methylsulfonyl)benzoate] | 11 nM |
| 20 nM | 120 nM | 384 nM | CS(=O)(=O)c1cccc(C(=O)Oc2cccc(-c3ccnc4c(C(F)(F)F)cccc34)c2)c1 [Example 21, 3-[8-(trifluoromethyl)quinolin-4-yl]phenyl 3-(methylsulfonyl)benzoate] | 634 nM |
| 2.3 nM | 3.9 nM | 9.15 nM | CS(=O)(=O)c1cccc(C(=O)Oc2cccc(-c3c(-c4ccccc4)cnc4c(C(F)(F)F)cccc34)c2)c1 [Example 22, 3-[3-phenyl-8-(trifluoromethyl)quinolin-4-yl]phenyl 3-(methylsulfonyl)benzoate] | 9.9 nM |
| 2.7 nM | 5.8 nM | 25 nM | CS(=O)(=O)c1cccc(C(=O)Oc2cccc(-c3c(Cc4ccccc4)cnc4c(C(F)(F)F)cccc34)c2)c1 [Example 23, 3-[3-benzyl-8-(trifluoromethyl)quinolin-4-yl]phenyl 3-(methylsulfonyl)benzoate] | 16 nM |
| 33 nM | 90 nM | – | CS(=O)(=O)c1cccc(C(=O)Oc2cccc(-c3c(C#N)cnc4c(C(F)(F)F)cccc34)c2)c1 [Example 24, 3-[3-cyano-8-(trifluoromethyl)quinolin-4-yl]phenyl 3-(methylsulfonyl)benzoate] | – |
| 14 nM | 58 nM | 42 nM | Cc1cnc2c(C(F)(F)F)cccc2c1-c1cccc(OC(=O)c2cccc(S(=O)(=O)N(C)C)c2)c1 [Example 25, 3-[3-methyl-8-(trifluoromethyl)quinolin-4-yl]phenyl 3-(dimethylsulfamoyl)benzoate] | 250 nM |
| 8.6 nM | 52 nM | 250 nM | CCS(=O)(=O)c1cccc(C(=O)Oc2cccc(-c3c(C)cnc4c(C(F)(F)F)cccc34)c2)c1 [Example 26] | 250 nM |
